Assay: Determination of the log P values by HPLC (formic acid method)
Format: physicochemical
Settings: reversed-phase column (C 18), acidic range (pH 3.4), 55° C.; for chromatographic logP: reversed-phase HPLC column (C 18)
Description: 1) Description of Method for Determination of the Log P Values (Formic Acid Method)
Eluents for determination in the acidic range (pH 3.4):
Eluent A: acetonitrile+1 ml of formic acid/liter. Eluent B: water+0.9 ml of formic acid/liter.
The lambda max values were determined in the maxima of the chromatographic signals using the UV spectra from 200 nm to 400 nm.

Row | Compound | chromatographic logP | log P
1 | O=C(O)c1ccccc1C(=O)Nc1ccn(-c2c(F)cc([N+](=O)[O-])cc2F)n1 [2-{[1-(2,6-Difluoro-4-nitrophenyl)-1H-pyrazol-3-yl]carbamoyl}benzoic acid] | 1.85 | –
2 | Cn1nc(C(F)(F)C(F)(F)F)c(C(F)(F)F)c1C(=O)Nc1ccn(-c2c(F)cccc2F)n1 [Compound I-1-237] | – | 3.84
3 | O=C(Nc1cnn(-c2ncc(F)cc2F)n1)c1sccc1C(F)(F)F [Compound I-2-85] | – | 2.50
4 | O=C(Nc1ccn(-c2ncnc(F)c2F)n1)c1ccccc1C(F)(F)F [Compound I-1-169, N-[1-(5,6-Difluoropyrimidin-4-yl)-1H-pyrazol-3-yl]-2-(trifluoromethyl)benzamide] | 2.62 | –
5 | Cc1nn(-c2ncccc2Cl)nc1NC(=O)c1ccccc1I [Compound I-2-59] | – | 2.28
6 | O=C(Nc1ccn(-c2ncccc2Br)n1)c1cccnc1C(F)(F)F [Compound I-1-550] | – | 2.34
7 | COc1ccc(Cl)c(C(=O)Nc2ccn(-c3ncc(F)cc3F)n2)c1 [Compound I-1-483] | – | 2.51
8 | CCc1cc(NC(=O)c2ccccc2Cl)nn1-c1ccc(F)cc1F [Compound I-1-213] | – | 3.99
9 | N#Cc1cc(F)ccc1-n1ccc(NC(=O)c2c(F)cccc2C(F)(F)F)n1 [Compound I-1-632] | – | 2.64
10 | Cc1nn(C)c(C)c1C(=O)Nc1ccn(-c2c(F)cccc2F)n1 [Compound I-1-109] | – | 1.77
11 | Cc1ccsc1C(=O)Nc1ccn(-c2cc(F)ccc2F)n1 [Compound I-1-71] | – | 3.24
12 | Cc1cn(-c2ccccc2Cl)nc1NC(=O)c1ccccc1C(F)(F)F [Compound I-1-345] | – | 3.01
13 | Cn1cccc1C(=O)Nc1ccn(-c2c(F)cccc2F)n1 [Compound I-1-645] | – | 2.41
14 | CCn1ncc(Br)c1C(=O)Nc1ccn(-c2c(F)cccc2F)n1 [Compound I-1-299] | – | 2.84
15 | Cc1nc(C(F)(F)F)c(C(=O)Nc2ccn(-c3ccccc3Cl)n2)s1 [Compound I-1-371] | – | 2.88
16 | CC(C)Cc1nn(C)c(C(=O)Nc2ccn(-c3ncc(F)cc3F)n2)c1[N+](=O)[O-] [Compound I-1-508] | – | 3.02
17 | O=C(Nc1ccn(-c2c(F)cccc2F)c1)c1cccnc1C(F)(F)F [Compound I-3-5] | – | 2.52
18 | O=C(Nc1ccn(-c2c(Cl)cccc2Cl)n1)c1cccnc1OC(F)(F)F [Compound I-1-226] | – | 3.21
19 | CCCc1ccc(C#N)c(-n2ccc(NC(=O)c3ccccc3C(F)(F)F)n2)n1 [Compound I-1-573, N-[1-(3-Cyano-6-propylpyridin-2-yl)-1H-pyrazol-3-yl]-2-(trifluoromethyl)benzamide] | 3.8 | –
20 | O=C(Nc1cnn(-c2c(F)cccc2F)n1)c1ncccc1C(F)(F)F [Compound I-2-80] | – | 2.78
21 | O=C(Nc1ccn(-c2ncc(F)cc2F)n1)c1ccncc1C(F)(F)F [Compound I-1-153] | – | 1.96
22 | O=C(Nc1ccn(-c2ncc(F)cc2F)n1)c1ccccc1OC(F)F [Compound I-1-459] | – | 2.50
23 | O=C(Nc1nn(-c2c(F)cccc2F)cc1I)c1ccccc1C(F)(F)F [Compound I-1-257] | – | 2.86
24 | O=C(Nc1ccn(-c2ncc(F)cc2F)n1)c1sccc1Cl [Compound I-1-503] | – | 2.61
25 | O=C(Nc1ccn(-c2c(F)cccc2F)n1)c1c(C(F)(F)F)cc(F)c(F)c1F [Compound I-1-296] | – | 3.14
26 | Cc1noc(C(F)(F)F)c1C(=O)Nc1ccn(-c2ncc(F)cc2F)n1 [Compound I-1-511] | – | 2.61

Row | Compound | chromatographic logP | log P
27 | O=C(Nc1cnn(-c2ccc(C(F)(F)F)cn2)n1)c1ccccc1C(F)(F)F [Compound I-2-42] | – | 3.02
28 | Cc1onc(C(=O)Nc2ccn(-c3c(F)cccc3F)n2)c1C [Compound I-1-297] | – | 2.76
29 | Cc1nn(-c2ccccc2Cl)nc1N(C(=O)c1ccccc1I)C(=O)c1ccccc1I [Compound I-2-25] | – | 4.68
30 | O=C(Nc1ccn(-c2ncc(F)cc2F)n1)c1ccccc1C1CC1 [Compound I-1-486] | – | 2.68
31 | Cn1nc(C(F)F)c(C(=O)Nc2ccn(-c3ncc(F)cc3F)n2)c1F [Compound I-1-500] | – | 2.06
32 | Cc1nn(C(F)F)c(C(=O)Nc2ccn(-c3c(F)cccc3F)n2)c1Cl [Compound I-1-306] | – | 3.11
33 | N#Cc1c(F)cccc1-n1ccc(NC(=O)c2ccsc2I)n1 [Compound I-1-624] | – | 2.79
34 | Cc1cc(NC(=O)c2ccccc2OC(F)(F)F)nn1-c1ccccc1Cl [Compound I-1-343] | – | 2.87
35 | O=C(Nc1ccn(-c2ncccc2C(F)(F)F)n1)c1c(F)cccc1F [Compound I-1-423] | – | 2.46
36 | O=C(Nc1cnn(-c2ncccc2Cl)n1)c1ccccc1I [Compound I-2-14] | – | 2.36
37 | O=C(Nc1ccn(-c2cnc(Cl)cn2)n1)c1c(F)cccc1F [Compound I-1-387] | – | 2.67
38 | Cn1nc(C(F)(F)F)c(Br)c1C(=O)Nc1ccn(-c2c(F)cccc2F)n1 [Compound I-1-303] | – | 3.37
39 | CC(C)Cc1nn(C)c(C(=O)Nc2ccn(-c3c(F)cccc3F)n2)c1[N+](=O)[O-] [Compound I-1-289] | – | 3.19
40 | CCN(C(=O)c1ccccc1C(F)(F)F)c1ccn(-c2c(F)cccc2F)n1 [Compound I-1-254] | – | 3.31
41 | Cc1oc(C)c(C(=O)Nc2ccn(-c3ncc(F)cc3F)n2)c1Br [Compound I-1-523] | – | 3.18
42 | N#Cc1cn(-c2ccccc2Cl)nc1NC(=O)c1ccccc1Cl [Compound I-1-362] | – | 2.37
43 | O=C(Nc1nn(-c2ncc(F)cc2F)cc1[N+](=O)[O-])c1ccccc1C(F)(F)F [Compound I-1-475] | – | 2.63
44 | O=C(Nc1ccn(-c2ncc(C(F)(F)F)cc2Cl)n1)c1ccccc1C(F)(F)F [Compound I-1-560] | – | 3.41
45 | O=C(Nc1ccn(-c2ccccc2Cl)n1)c1sccc1C(F)F [Compound I-1-374] | – | 3.15
46 | O=C(Nc1ccn(-c2ncccc2C(F)(F)F)n1)c1ccccc1C(F)(F)F [Compound I-1-422] | – | 2.72
47 | Cc1nn(C)cc1C(=O)Nc1ccn(-c2ncc(F)cc2F)n1 [Compound I-1-446] | – | 1.54
48 | O=C(Nc1ccn(-c2cc(F)ccc2F)n1)c1ncccc1Cl [Compound I-1-220] | – | 3.00
49 | Nc1ccn(-c2ncc(F)cc2Cl)n1 [1-(3-Chloro-5-fluoropyridin-2-yl)-1H-pyrazole-3-amine] | 0.98 | –
50 | N#Cc1cc(F)c(-n2ccc(NC(=O)c3ccccc3C(F)(F)F)n2)c(F)c1 [Compound I-1-228, N-[1-(4-Cyano-2,6-difluorophenyl)-1H-pyrazol-3-yl]-2-(trifluoromethyl)benzamide] | 2.66 | –
51 | O=C(Nc1cnn(-c2ncccc2F)n1)c1ccccc1Cl [Compound I-2-48] | – | 1.99

Further lines, results first:

Row | chromatographic logP | log P | Compound
52 | – | 2.74 | O=C(Nc1ccn(-c2c(F)cccc2F)n1)c1ccccc1OC(F)F [Compound I-1-247]
53 | – | 2.84 | COc1ccccc1-n1ccc(NC(=O)c2ccccc2C(F)(F)F)n1 [Compound I-1-406]
54 | – | 1.94 | Nc1cc(NC(=O)c2ccccc2Br)nn1-c1ccccc1Cl [Compound I-1-355]
55 | – | 2.75 | O=C(Nc1ccn(-c2ccccc2C(F)(F)F)n1)c1ccccc1C(F)(F)F [Compound I-1-6]
56 | – | 2.99 | Cc1cn(-c2ccccc2Cl)nc1NC(=O)c1ccccc1I [Compound I-1-365]
57 | – | 3.63 | Cc1cc(NC(=O)c2ccccc2Br)nn1-c1ccc(F)cc1F [Compound I-1-208]
58 | – | 2.48 | O=C(Nc1ccn(-c2ccccc2Cl)n1)c1cccnc1C(F)(F)F [Compound I-1-42]
59 | – | 3.05 | Cc1cc(C(=O)Nc2ccn(-c3ccccc3Cl)n2)c(C)o1 [Compound I-1-45]
60 | – | 2.00 | CS(=O)(=O)c1ccccc1-n1ccc(NC(=O)c2cccnc2C(F)(F)F)n1 [Compound I-1-180]
61 | – | 2.05 | O=C(Nc1ccn(-c2ncccc2F)n1)c1ccccc1Cl [Compound I-1-129]
62 | – | 2.63 | O=C(Nc1ccn(-c2ccccc2[N+](=O)[O-])n1)c1ccccc1C(F)(F)F [Compound I-1-415]
63 | – | 2.58 | Cc1cc(NC(=O)c2ccccc2C(F)(F)F)nn1-c1ccccc1Cl [Compound I-1-347]
64 | – | 2.67 | N#Cc1cc(F)ccc1-n1ccc(NC(=O)c2ccccc2C(F)(F)F)n1 [Compound I-1-626]
65 | – | 2.88 | O=C(Nc1ccn(-c2c(Cl)cccc2Cl)n1)c1ccccc1Br [Compound I-1-122]
66 | – | 3.38 | O=C(Nc1ccn(-c2cccc(Cl)c2Cl)n1)c1ccccc1Cl [Compound I-1-188]
67 | – | 2.33 | O=C(Nc1ccn(-c2ccccn2)n1)c1ccccc1Cl [Compound I-1-420]
68 | – | 2.73 | O=C(Nc1ccn(-c2c(F)cccc2F)n1)c1ccccc1C(F)F [Compound I-1-74]
69 | – | 2.99 | O=C(Nc1ccn(-c2ccccc2Br)n1)c1ncccc1C(F)(F)F [Compound I-1-54]
70 | – | 2.37 | COc1ccccc1-n1ccc(NC(=O)c2cccnc2C(F)(F)F)n1 [Compound I-1-407]
71 | – | 2.22 | O=C(Nc1ccn(-c2ccccc2Cl)n1)c1cccnc1Br [Compound I-1-358]
72 | – | 2.57 | COc1ccccc1-n1ccc(NC(=O)c2c(F)cccc2F)n1 [Compound I-1-408]
73 | – | 3.44 | O=C(Nc1ccn(-c2ccc(Cl)cc2Cl)n1)c1ccccc1Br [Compound I-1-199]
74 | – | 2.36 | O=C(Nc1ccn(-c2ccccn2)n1)c1ccccc1Br [Compound I-1-127]
75 | – | 2.71 | Cc1occc1C(=O)Nc1ccn(-c2ccccc2Cl)n1 [Compound I-1-370]
76 | – | 2.00 | CS(=O)(=O)c1ccccc1-n1ccc(NC(=O)c2ccccc2Br)n1 [Compound I-1-182]
77 | – | 1.91 | O=C(Nc1ccn(-c2ncc(F)cn2)n1)c1ccccc1Cl [Compound I-1-604]

Reference: patent publication US9802899B2, “Heterocyclic compounds as pesticides” (BAYER CROPSCIENCE AG, priority 2012, dated 2017)
